Laboratory results as given in patent publication US20140051679A1, “KINASE INHIBITORS AND METHOD OF TREATING CANCER WITH SAME” (UNIVERISTY HEALTH NETWORKS, priority 2011, published 2014).

How the values were obtained:
human TTK = target: T1, human TTK (Homo sapiens, UniProt P33981); assay: TTK inhibition assay (indirect ELISA); type: biochemical; conditions: GST-TTK 0.68 nM, 16 μM ATP; read-out: IC50 Ranges TTK
T1 construct: amino terminal GST fusion of full length human TTK; purchased Invitrogen
T1 sequence (P33981 1-857): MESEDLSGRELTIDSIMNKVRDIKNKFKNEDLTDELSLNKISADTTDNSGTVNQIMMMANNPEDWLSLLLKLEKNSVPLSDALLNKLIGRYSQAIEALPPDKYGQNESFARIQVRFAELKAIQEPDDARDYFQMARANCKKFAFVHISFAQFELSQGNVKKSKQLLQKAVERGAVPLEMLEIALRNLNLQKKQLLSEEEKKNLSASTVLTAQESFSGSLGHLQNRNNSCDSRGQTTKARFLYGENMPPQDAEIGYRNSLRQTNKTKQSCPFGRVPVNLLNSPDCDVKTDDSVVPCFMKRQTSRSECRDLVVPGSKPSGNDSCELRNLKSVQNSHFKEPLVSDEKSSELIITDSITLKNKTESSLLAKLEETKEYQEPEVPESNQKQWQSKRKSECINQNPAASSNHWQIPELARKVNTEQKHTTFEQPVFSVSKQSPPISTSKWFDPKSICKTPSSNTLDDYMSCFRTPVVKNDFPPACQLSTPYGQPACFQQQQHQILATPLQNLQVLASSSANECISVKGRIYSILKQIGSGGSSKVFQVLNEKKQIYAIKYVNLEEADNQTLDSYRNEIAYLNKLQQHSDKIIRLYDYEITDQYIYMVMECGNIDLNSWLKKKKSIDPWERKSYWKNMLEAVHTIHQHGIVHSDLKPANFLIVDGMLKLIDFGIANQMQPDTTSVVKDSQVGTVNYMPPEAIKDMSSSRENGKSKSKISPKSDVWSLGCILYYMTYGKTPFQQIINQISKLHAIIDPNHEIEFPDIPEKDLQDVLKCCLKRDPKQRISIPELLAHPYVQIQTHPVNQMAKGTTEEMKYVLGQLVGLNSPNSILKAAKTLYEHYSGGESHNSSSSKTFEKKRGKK

Aurora B = target: T2, Aurora B (Homo sapiens, UniProt Q96GD4); assay: Aurora B inhibition assay (Z-Lyte); type: biochemical; conditions: 28 nM Aurora B, 128 μM ATP; read-out: IC50 Ranges Aurora B
T2 construct: purchased Invitrogen PV3970
T2 sequence (Q96GD4 whole entry): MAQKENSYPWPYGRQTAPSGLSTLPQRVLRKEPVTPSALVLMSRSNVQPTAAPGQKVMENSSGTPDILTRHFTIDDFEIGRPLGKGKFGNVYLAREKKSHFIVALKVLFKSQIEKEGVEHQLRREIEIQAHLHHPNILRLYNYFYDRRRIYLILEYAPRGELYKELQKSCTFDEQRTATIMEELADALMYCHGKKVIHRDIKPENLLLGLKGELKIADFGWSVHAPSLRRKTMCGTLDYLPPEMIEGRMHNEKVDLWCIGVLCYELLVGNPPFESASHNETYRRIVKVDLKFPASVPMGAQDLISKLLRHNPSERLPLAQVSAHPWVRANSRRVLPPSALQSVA
Method: Aurora B inhibition was determined using the Z-Lyte assay kit from Invitrogen. The assay was performed using the recommended manufacturer's instructions with 128 μM ATP and 28 nM Aurora B (Invitrogen cat #PV3970). The % inhibition values were determined according to the manufacturer's directions and IC50 values were obtained using a non-linear 4 point logistic curve fit (XLfit4, IDBS)

[1] = system: MDA-MB-468 breast cancer cells; assay: Cell growth inhibition, Sulforhodamine B assay, MDA-MB-468; type: cell-based; conditions: Homo sapiens, 120 h, 5 days culture, SRB assay, read-out: Cell Line GI50 Range MDA-MB-468
HT29 colon cancer cells = assay: Cell growth inhibition, Sulforhodamine B assay, HT29; type: cell-based; conditions: Homo sapiens, HT-29, 120 h, 5 days culture, SRB assay, read-out: Cell Line GI50 Range HT29
human PLK4 = target: T3, human PLK4 (Homo sapiens, UniProt O00444); assay: PLK4 inhibition assay (indirect ELISA); type: biochemical; conditions: GST-PLK4 4 nM, 15 μM ATP; read-out: IC50 Ranges PLK4
T3 construct: amino terminal GST fusion of residues 1-391 of human PLK4; made in house; host or cells: E. coli
T3 sequence (O00444 1-391): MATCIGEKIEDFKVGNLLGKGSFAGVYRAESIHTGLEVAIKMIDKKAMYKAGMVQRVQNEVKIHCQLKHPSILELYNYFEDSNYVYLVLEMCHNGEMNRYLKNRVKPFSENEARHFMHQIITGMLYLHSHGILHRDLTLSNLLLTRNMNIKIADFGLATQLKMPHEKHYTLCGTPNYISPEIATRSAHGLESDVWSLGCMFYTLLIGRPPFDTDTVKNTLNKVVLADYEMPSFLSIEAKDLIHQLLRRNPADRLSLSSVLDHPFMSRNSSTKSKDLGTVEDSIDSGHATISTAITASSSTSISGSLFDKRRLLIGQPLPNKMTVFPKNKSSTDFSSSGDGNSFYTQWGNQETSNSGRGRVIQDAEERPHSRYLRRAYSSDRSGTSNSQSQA
Method: Active PLK4 was purified from an E. coli expression system as an amino terminal GST fusion of residues 1-391 of human PLK4. The protein was purified from clarified cell extracts after induction at 15° C. overnight using glutathione sepharose, gel permeation chromatography, and ion exchange (Resource Q). The resulting protein was dephosphorylated with lambda phosphatase (NEB cat#P0753), and resolved from the phosphatase using gluthione sepharose. The dephosphorylated GST-PLK4 was stored in aliquots at −80° C. until use.
PLK4 activity was measured using an indirect ELISA detection system. GST-PLK4 (4 nM) was incubated in the presence of 15 μM ATP (Sigma cat#A7699), 50 mM HEPES-Na^2+ pH 7.5, 10 mM MgCl2, 0.01% Brij 35 (Sigma cat#03-3170), in a 96 well microtitre plate pre-coated with MBP (Millipore cat#30-011). The reaction was allowed to proceed for 30 minutes, followed by 5 washes of the plate with Wash Buffer (phosphate buffered saline supplemented with 0.2% Tween 20), and incubation for 30 minutes with a 1:3000 dilution of primary antibody (Cell Signaling cat#9381). The plate was washed 5 times with Wash Buffer, incubated for 30 minutes in the presence of secondary antibody coupled to horse radish peroxidase (BioRad cat#1721019, 1:3000 concentration), washed an additional 5 times with Wash Buffer, and incubated in the presence of TMB substrate (Sigma cat#T0440). The colourimetric reaction was allowed to continue for 5 minutes, followed by addition of stop solution (0.5 N sulphuric acid), and quantified by detection at 450 nm with either a monochromatic or filter based plate reader (Molecular Devices M5 or Beckman DTX880, respectively).
Compound inhibition was determined at either a fixed concentration (10 μM) or at a variable inhibitor concentration (typically 0.5 μM to 0.001 μM in a 10 point dose response titration). Compounds were pre-incubated in the presence of enzyme for 15 minutes prior to addition of ATP and the activity remaining quantified using the above described activity assay. The % Inhibition of a compound was determined using the following formula; % Inhibition=100×(1-(experimental value−background value)/(high activity control−background value)). The IC50 value was determined using a non-linear 4 point logistic curve fit (XLfit4, IDBS) with the formula; (A+(B/(1+((x/C)̂D)))), where A=background value, B=range, C=inflection point, D=curve fit parameter.

[2] = system: HCT116 colon cancer cells; assay: Cell growth inhibition, Sulforhodamine B assay, HCT116; type: cell-based; conditions: Homo sapiens, HCT-116, 120 h, 5 days culture, SRB assay, read-out: Cell Line GI50 Range HCT116

CN1CCC(Oc2ccc(-c3n[nH]c4ccc(NC(=O)C5c6ccccc6CCN5C)cc34)cc2)CC1 (stereo not drawn) [Example A39, 2-methyl-N-(3-(4-((1-methylpiperidin-4-yl)oxy)phenyl)-1H-indazol-5-yl)-1,2,3,4-tetrahydroisoquinoline-1-carboxamide]
≤ 5 µM: IC50 (human TTK) | IC50 (Aurora B) | GI50 [1] | GI50 (HT29 colon cancer cells) | IC50 (human PLK4) | GI50 [2]

C[C@H]1CCCN1[C@H](C(=O)Nc1ccc2[nH]nc(-c3ccc(N4CCOCC4)cc3)c2c1)c1cccs1 [Example A79, (R)-2-((S)-2-methylpyrrolidin-1-yl)-N-(3-(4-morpholinophenyl)-1H-indazol-5-yl)-2-(thiophen-2-yl)acetamide]
≤ 5 µM: IC50 (human TTK) | IC50 (Aurora B) | GI50 [1] | GI50 (HT29 colon cancer cells) | IC50 (human PLK4) | GI50 [2]

O=C(N[C@H](c1ccccc1)C1CC1)c1ccc2[nH]nc(-c3ccc(N4CCOCC4)cc3)c2c1 [Example A49, (S)—N-(cyclopropyl(phenyl)methyl)-3-(4-morpholinophenyl)-1H-indazole-5-carboxamide]
≤ 5 µM: IC50 (human TTK) | IC50 (Aurora B) | GI50 [1] | GI50 (HT29 colon cancer cells) | IC50 (human PLK4) | GI50 [2]

CN(c1ccc(-c2n[nH]c3ccc(NC(=O)C(c4ccsc4)N4CCCC4)cc23)cc1)C1CCOCC1 (stereo not drawn) [Example A78, N-(3-(4-(methyl(tetrahydro-2H-pyran-4-yl)amino)phenyl)-1H-indazol-5-yl)-2-(pyrrolidin-1-yl)-2-(thiophen-3-yl)acetamide]
≤ 5 µM: IC50 (human TTK) | IC50 (Aurora B) | GI50 [1] | GI50 (HT29 colon cancer cells) | IC50 (human PLK4) | GI50 [2]

C[C@H]1CCCN1[C@H](C(=O)Nc1ccc2[nH]nc(-c3ccc(N4CCOCC4)cc3)c2c1)c1ccsc1 [Example A47, (S)-2-((S)-2-methylpyrrolidin-1-yl)-N-(3-(4-morpholinophenyl)-1H-indazol-5-yl)-2-(thiophen-3-yl)acetamide]
≤ 5 µM: IC50 (human TTK) | IC50 (Aurora B) | GI50 [1] | GI50 (HT29 colon cancer cells) | IC50 (human PLK4) | GI50 [2]

COC(C(=O)Nc1ccc2[nH]nc(-c3ccc(OC4CCN(C)CC4)cc3)c2c1)c1ccsc1 (stereo not drawn) [Example A37, 2-methoxy-N-(3-(4-((1-methylpiperidin-4-yl)oxy)phenyl)-1H-indazol-5-yl)-2-(thiophen-3-yl)acetamide]
≤ 5 µM: IC50 (human TTK) | IC50 (Aurora B) | GI50 [1] | GI50 (HT29 colon cancer cells) | IC50 (human PLK4) | GI50 [2]

O=C(Nc1ccc2[nH]nc(-c3ccc(NC4CCOCC4)cc3)c2c1)C(c1ccsc1)N1CCCC1 (stereo not drawn) [Example A71, 2-(pyrrolidin-1-yl)-N-(3-(4-((tetrahydro-2H-pyran-4-yl)amino)phenyl)-1H-indazol-5-yl)-2-(thiophen-3-yl)acetamide]
≤ 5 µM: IC50 (human TTK) | IC50 (Aurora B) | GI50 [1] | GI50 (HT29 colon cancer cells) | IC50 (human PLK4) | GI50 [2]

C[C@@H]1CN(c2ccc(-c3n[nH]c4ccc(NC(=O)C(c5ccsc5)N5CCCC5)cc34)cc2)C[C@H](C)O1 (stereo partly drawn) [Example A50, N-(3-(4-((2S,6R)-2,6-dimethylmorpholino)phenyl)-1H-indazol-5-yl)-2-(pyrrolidin-1-yl)-2-(thiophen-3-yl)acetamide]
≤ 5 µM: IC50 (human TTK) | IC50 (Aurora B) | GI50 [1] | GI50 (HT29 colon cancer cells) | IC50 (human PLK4) | GI50 [2]

O=C(N[C@@H](c1ccccc1)C1CC1)c1ccc2[nH]nc(-c3ccc(N4CCOCC4)cc3)c2c1 [Example A51, (R)—N-(cyclopropyl(phenyl)methyl)-3-(4-morpholinophenyl)-1H-indazole-5-carboxamide]
≤ 5 µM: IC50 (human TTK) | IC50 (Aurora B) | GI50 [1] | GI50 (HT29 colon cancer cells) | IC50 (human PLK4) | GI50 [2]

CN1CCC(Oc2ccc(-c3n[nH]c4ccc(C(=O)NC(c5ccccn5)C5CCC5)cc34)cc2)CC1 (stereo not drawn) [Example A210]
≤ 5 µM: IC50 (human TTK) | IC50 (Aurora B) | IC50 (human PLK4)

CN1[C@@H]2CC[C@H]1C[C@@H](Oc1ccc(-c3n[nH]c4ccc(C(=O)N[C@H](c5ccccn5)C5CC5)cc34)cc1)C2 [Example A213, N—((S)-cyclopropyl(pyridin-2-yl)methyl)-3-(4-(((1R,3r,5S)-8-methyl-8-azabicyclo[3.2.1]octan-3-yl)oxy)phenyl)-1H-indazole-5-carboxamide]
≤ 5 µM: IC50 (human TTK) | IC50 (Aurora B) | IC50 (human PLK4)

CN1CCC(Oc2ccc(-c3n[nH]c4ccc(NC(=O)C(c5ccsc5)N5CCCC5)cc34)cc2N)CC1 (stereo not drawn) [Example A80, N-(3-(3-amino-4-((1-methylpiperidin-4-yl)oxy)phenyl)-1H-indazol-5-yl)-2-(pyrrolidin-1-yl)-2-(thiophen-3-yl)acetamide]
≤ 5 µM: IC50 (human TTK) | IC50 (Aurora B) | GI50 [1] | GI50 (HT29 colon cancer cells) | IC50 (human PLK4) | GI50 [2]

O=CN1CCC(Oc2ccc(-c3n[nH]c4ccc(C(=O)N[C@H](c5ncccc5Cl)C5CC5)cc34)cc2)CC1 [Example A212, (S)—N-((3-chloropyridin-2-yl)(cyclopropyl)methyl)-3-(4-((1-formylpiperidin-4-yl)oxy)phenyl)-1H-indazole-5-carboxamide]
≤ 5 µM: IC50 (human TTK) | IC50 (Aurora B) | IC50 (human PLK4)
